Assay results taken from US8785452B2, “Anti-infective compounds” (priority 2008, dated 2014).
Converted amounts (≈) assume the structure as drawn. Read-outs that look alike come from different tables or passages of the source.

Key:
[1] = system: M. tuberculosis H37Rv-GFP; test: microbe, parasite or virus in culture; format: cell-based; conditions: Mycobacterium tuberculosis; for inhibition at 0.2 µM: read-out: QUM Confirm % Inhibition 0.2 uM; for inhibition at 2 µM: read-out: QUM Confirm % Inhibition 2 uM; for inhibition at 20 µM: read-out: QUM Confirm % Inhibition 20 uM
Raw264.7 cells = test: Cell number (CellNb) from image analysis of the phenotypic cell-based assay
[2] = system: M. tuberculosis H37Rv-GFP; test: microbe, parasite or virus in culture; format: cell-based, Mycobacterium tuberculosis; conditions: for inhibition at 20 µM / inhibition at 0.2 µM / inhibition at 2 µM: Macrophage; for inhibition at 0.2 µM: read-out: QIM Confirm % Inhibition 0.2 uM; for inhibition at 2 µM: read-out: QIM Confirm % Inhibition 2 uM
[3] = Mycobacterium tuberculosis, H37RV, read-out: Primary QIM % Inhibition
[4] = Mycobacterium tuberculosis, H37RV
[5] = Mycobacterium tuberculosis, H37RV, read-out: QIM Confirm % Inhibition 20 uM
[6] = Mycobacterium tuberculosis, H37RV, confirmation, 0.2 uM, intracellular
[7] = Mycobacterium tuberculosis, H37RV, confirmation, 2 uM, intracellular
[8] = Mycobacterium tuberculosis, H37RV, confirmation, 20 uM, read-out: QIM Confirm % Inhibition 20 uM
[9] = Mycobacterium tuberculosis, H37RV, primary screen, 20 μM, read-out: Primary QIM % Inhibition
[10] = Mycobacterium tuberculosis, H37RV, confirmation, 20 uM, intracellular, read-out: QIM Confirm % Inhibition 20 uM
[11] = Mycobacterium tuberculosis, H37RV, primary screen, 20 μM, intracellular, read-out: Primary QIM % Inhibition

Row | Compound | inhibition at 0.2 µM [1] | inhibition at 2 µM [1] | inhibition at 20 µM [1] | QIM Confirm CellNb 0.2 uM (Raw264.7 cells; confirmation, 0.2 uM) | QIM Confirm CellNb 2 uM (Raw264.7 cells; confirmation, 2 uM) | QIM Confirm CellNb 20 uM (Raw264.7 cells; confirmation, 20 uM) | Primary QIM CellNb (Raw264.7 cells; primary screen, 20 μM) | inhibition at 0.2 µM [2, 6] | inhibition at 2 µM [2, 7] | inhibition at 20 µM [2, 8] | inhibition at 20 µM [2, 9] | also measured
1 | COc1ccc(OCCNC(=O)c2cc([N+](=O)[O-])cc([N+](=O)[O-])c2)cc1 [IPK 000 028 35] | 94% | 98.1% | 48.3% |  |  |  |  |  |  |  |  | Primary QIM CellNb (Raw264.7 cells): 315.3; QIM Confirm CellNb 0.2 uM (Raw264.7 cells): 489.8; QIM Confirm CellNb 2 uM (Raw264.7 cells): 478.6; QIM Confirm CellNb 20 uM (Raw264.7 cells): 308.9; inhibition at 20 µM [2, 3]: 94.5%; inhibition at 0.2 µM [2, 4]: 64.5%; inhibition at 2 µM [2, 4]: 102%; inhibition at 20 µM [2, 5]: 17.8%
2 | C/C(=N/NC(=O)c1ccncc1)c1cccs1 [IPK 000 003 01] | 46.4% | 82.8% | 43% | 232.6 | 457.3 | 248.3 | 373.5 | 4.7% | 77.1% | 40.4% | 88.2% | 
3 | N#Cc1ccccc1NC(=O)CSc1nc2ccccc2s1 [IPK 000 018 97] | 40.5% | 33.9% | 36.1% | 288.5 | 299.8 | 553.9 | 314.0 | 7.3% | 20% | 83.8% | 76.7% | 
4 | O=C(NCCOCc1ccccc1)c1cc([N+](=O)[O-])cc([N+](=O)[O-])c1 [IPK 000 027 91] | 65.8% | 97.6% | 75% |  |  |  |  |  |  |  |  | Primary QIM CellNb (Raw264.7 cells): 410.8; QIM Confirm CellNb 0.2 uM (Raw264.7 cells): 295.3; QIM Confirm CellNb 2 uM (Raw264.7 cells): 434.1; QIM Confirm CellNb 20 uM (Raw264.7 cells): 325.6; inhibition at 20 µM [2, 3]: 89%; inhibition at 0.2 µM [2, 4]: 14.2%; inhibition at 2 µM [2, 4]: 98.5%; inhibition at 20 µM [2, 5]: 46.1%
5 | Fc1ccc(Nc2nc3nonc3nc2Nc2ccc(F)cc2)cc1 [IPK 000 003 91] | 46.6% | 41.4% | 76.7% | 220.9 | 148.9 | 128.8 | 63.0 | 2.9% | 36.8% | 76.4% | 31.6% | 
6 | CCCSc1nnc(-c2ccc(Cl)cc2Cl)o1 [IPK 000 024 43] | 34.7% | 40.1% | 67.7% | 352.1 | 349.0 | 205.0 | 203.8 | 50.4% | 58.3% | 59.1% | 5.8% | 
7 | Clc1ccc(Nc2nc3nonc3nc2Nc2ccc(Cl)c(Cl)c2)cc1Cl [IPK 000 003 89] | 44% | 76.5% | 67% | 265.3 | 200.6 | 103.0 | 72.5 | 20.1% | 86.6% | 84.6% | 27.7% | 
8 | COc1ccccc1OCCNC(=O)c1cc([N+](=O)[O-])cc([N+](=O)[O-])c1 [IPK 000 027 74] | 43.5% | 97.5% | 100% |  |  |  |  |  |  |  |  | Primary QIM CellNb (Raw264.7 cells): 366.0; QIM Confirm CellNb 0.2 uM (Raw264.7 cells): 268.5; QIM Confirm CellNb 2 uM (Raw264.7 cells): 478.8; QIM Confirm CellNb 20 uM (Raw264.7 cells): 435.8; inhibition at 20 µM [2, 3]: 87.2%; inhibition at 0.2 µM [2, 4]: -2.7%; inhibition at 2 µM [2, 4]: 83.3%; inhibition at 20 µM [2, 5]: 96.9%
9 | O=C(N/N=C/c1ccccc1F)c1ccncc1 [IPK 000 013 71] | 51.6% | 92.2% | 68.4% | 476.5 | 544.3 | 377.4 | 358.8 | 86.3% | 105% | 97.5% | 103% | 
10 | CCOC(=O)c1c(CSc2ccccc2)n(Cc2ccccc2)c2ccc(O)c(CN(C)C)c12 [IPK 000 016 05] | 36.6% | 42.5% | 70% |  |  |  |  |  |  |  |  | Primary QIM CellNb (Raw264.7 cells): 192.0; QIM Confirm CellNb 0.2 uM (Raw264.7 cells): 206.8; QIM Confirm CellNb 2 uM (Raw264.7 cells): 148.9; QIM Confirm CellNb 20 uM (Raw264.7 cells): 282.0; inhibition at 20 µM [2, 3]: 67.9%; inhibition at 0.2 µM [2, 4]: -2.2%; inhibition at 2 µM [2, 4]: 0.8%; inhibition at 20 µM [2, 5]: 43.4%
11 | CC1=NN(C(=O)c2ccncc2)C(O)(C(F)(F)F)C1 (stereo not drawn) [IPK 000 009 78] | 30% | 61.1% | 100% | 325.5 | 414.4 | 376.1 | 454.5 | 17% | 50.2% | 88.6% | 103% | 
12 | O=C(NCCOc1ccccc1Cl)c1cc([N+](=O)[O-])cc([N+](=O)[O-])c1 [IPK 000 027 72] | 35.1% | 97.6% | 101% | 267.0 | 440.4 | 238.1 | 333.3 | 29.3% | 77.7% | 100% | 82.6% | 
13 | O=[N+]([O-])c1cc(C(F)(F)F)cc([N+](=O)[O-])c1Sc1nc(-c2ccccc2)c[nH]1 [IPK 000 001 32] | 43.9% | 41.2% | 89.1% | 241.4 | 208.5 | 113.8 | 88.3 | 10.3% | 0.2% | 50.7% | 25.4% | 
14 | N#CC(C#N)=NNc1ccc(I)cc1 [IPK 000 007 31] | 41% | 33% | 80.8% |  |  |  |  |  |  |  |  | Primary QIM CellNb (Raw264.7 cells): 61.3; QIM Confirm CellNb 0.2 uM (Raw264.7 cells): 393.1; QIM Confirm CellNb 2 uM (Raw264.7 cells): 308.8; QIM Confirm CellNb 20 uM (Raw264.7 cells): 166.5; inhibition at 20 µM [2, 3]: -28.2%; inhibition at 0.2 µM [2, 4]: 45.7%; inhibition at 2 µM [2, 4]: 14.7%; inhibition at 20 µM [2, 5]: 25.8%
15 | O=C(N/N=C/c1cccc([N+](=O)[O-])c1)c1ccncc1 [IPK 000 041 47] | 43.8% | 82.3% | 99.5% | 479.8 | 516.1 | 345.8 | 362.8 | 74.5% | 102% | 95.5% | 102% | 
16 | CC(C)(C)C(=O)Nc1ccccc1C(=O)N1CCOCC1 [IPK 000 021 87] | 49.1% | 42.9% | 41.9% | 305.3 | 403.4 | 609.0 | 405.0 | 15.4% | 29.8% | 96.5% | 90.2% | 
17 | [C-]#[N+]c1ccc(Cl)cc1C(C)S(=O)(=O)c1ccc(C)cc1 (stereo not drawn) [IPK 000 126 33] |  |  |  |  | 126.8 |  | 123.3 |  |  |  |  | inhibition at 20 µM [2, 10]: 73.4%; inhibition at 20 µM [2, 11]: 80.7%
18 | CCOC(=O)C1(O)c2ccccc2-c2ccccc21 [IPK 000 105 55] |  |  |  |  |  |  | 181.3 |  |  | 91.5% | 89.3% | 
19 | NNC(=O)c1ccncc1 [INH, isoniazid, reference compound] |  |  |  |  |  |  |  |  |  |  |  | MIC ([1]; read-out: minimal inhibitory concentration (MIC)): 0.1 µg/mL (≈ 0.729 µM); minimal inhibitory concentration (MIC) [2]: 0.16 ± 0.05 µg/mL (≈ 1.17 µM); MIC ([2]; Mycobacterium tuberculosis, H37RV, 120 h, read-out: minimal inhibitory concentration (MIC)): 0.1 µg/mL (≈ 0.729 µM)
20 | CCCCOC(=O)C1(O)c2ccccc2-c2ccccc21 [IPK 000 105 56] |  |  |  |  |  |  | 225.0 |  |  | 86.9% | 65.7% | 
21 | CC(C)(C)c1cc(C(=O)N/N=C2\C(=O)N(Cc3ccccc3)c3ccccc32)[nH]n1 [IPK 000 138 12] |  |  |  |  |  |  | 480.8 |  |  |  |  | inhibition at 20 µM [2, 10]: 105%; inhibition at 20 µM [2, 11]: 96.8%
22 | CN(C)c1ccc(/N=N/c2ccccc2C(=O)O)cc1 [IPK 000 052 75] |  |  |  |  |  |  | 48.8 |  |  | 10.1% | -77.4% | 
23 | O=C(O)c1cn(C2CC2)c2cc(N3CCNCC3)c(F)cc2c1=O [IPK 000 117 14] |  |  |  |  |  |  | 546.0 |  |  |  |  | inhibition at 20 µM [2, 3]: 69.1%; inhibition at 20 µM [2, 5]: 66.5%
24 | C=CCN1C(=O)/C(=N/NC(=O)c2ccc(F)cc2)c2ccccc21 [IPK 000 104 67] |  |  |  |  |  |  | 183.0 |  |  | 73.7% | 33.8% | 
